Data set [1] in a line: Inhibition of biotin-tagged KRAS G12D mutant (unknown origin) to recombinant His-tagged SOS1 (unknown origin) protein-protein interaction incubated for 120 mins by AlphaLISA method. Details: species or system Homo sapiens. Background: In Alpha technology, singlet oxygen from a donor bead excites a nearby acceptor bead.
The subject of the next data set is ASPC1. The experiment in a line: Cytotoxicity against human AsPC1 cells assessed as reduction in cell viability incubated for 7 days by CellTiterGlo Luminescent Cell Viability Assay. In kind it is functional, cell-based. To be noted: ASPC1, 168 h. (Cellular ATP, detected with luciferase, serves as a proxy for viable cell number.)
Data set [2] can be described thus: Apparent permeability in human Caco-2 cells incubated for 180 mins by LC-MS/MS method. The class given is ADME, cell-based. In general terms: Caco-2 monolayers are a common model of the intestinal barrier.

pIC50: −log10 of the molar value. Starred links: 1 amine or outer side, 2 acyl side, 3 side chain; linkers in the order of their positions; H or OH if unused. Positions of bridges follow the written chain, without caps; N, C: chain ends. Non-standard residues stand in square brackets, D forms with d. Residues, ends and D or L forms follow the SMILES beside them. *: point of attachment. hPhe(3-Cl-4-CF3) = N[C@@H](CCc1ccc(C(F)(F)F)c(Cl)c1)C(=O)O; X2 = CN([C@@H](CC(=O)[*:2])C(=O)n1cccc1)[*:1]; NMePhe(4-Cl) = CN[C@@H](Cc1ccc(Cl)cc1)C(=O)O; X1 = O=C([C@H](CC(=O)[*:2])N[*:1])n1cccc1; NMeAla(cPent) = CN[C@@H](CC1CCCC1)C(=O)O; Phe(3-Cl) = N[C@@H](Cc1cccc(Cl)c1)C(=O)O; NMeAla(cPr) = CN[C@@H](CC1CC1)C(=O)O; NMeCha = CN[C@@H](CC1CCCCC1)C(=O)O; NMeCba = CN[C@@H](CC1CCC1)C(=O)O; NMeF = CN[C@@H](Cc1ccccc1)C(=O)O; NMeI = CC[C@H](C)[C@H](NC)C(=O)O; NMeD = CN[C@@H](CC(=O)O)C(=O)O; NMeL = CN[C@@H](CC(C)C)C(=O)O; NMeNle = CCCC[C@H](NC)C(=O)O; NMeNva = CCC[C@H](NC)C(=O)O; NMeV = CN[C@H](C(=O)O)C(C)C; NMeA = CN[C@@H](C)C(=O)O; Piperidide = C1CCN(*)CC1; Pyrrolidide = C1CCN(*)C1; Ac5c = NC1(C(=O)O)CCCC1; Aze = O=C(O)[C@@H]1CCN1; Sar = CNCC(=O)O

What is called pIC50 is −log10 of the IC50, conventionally taken in molar units. In the case of `CC[C@H](C)[C@@H]1NC(=O)[C@H](C)N(C)C(=O)C[C@@H](C(=O)N2CCCC2)NC(=O)[C@H](C(C)C)N(C)C(=O)[C@H](Cc2ccccc2)N(C)C(=O)[C@H](Cc2c[nH]c3ccccc23)NC(=O)[C@H](Cc2cccc(Cl)c2)NC(=O)CN(C)C(=O)[C@H](Cc2ccc(Cl)cc2)N(C)C(=O)CN(C)C(=O)CN(C)C1=O` ([NMeA]I[Sar][Sar][NMePhe(4-Cl)][Sar][Phe(3-Cl)]W[NMeF][NMeV]D-Pyrrolidide; lactam N-11), in data set [1], the pIC50 is 7.27.
The term Papp denotes a coefficient for how fast a substance crosses the barrier. For the compound `CC[C@H](C)[C@@H]1NC(=O)[C@H](CC2CCCC2)N(C)C(=O)C[C@@H](C(=O)N2CCCCC2)N(C)C(=O)[C@H](C(C)C)N(C)C(=O)C2(CCCC2)NC(=O)[C@@H]2CCCN2C(=O)[C@H](CCc2ccc(C(F)(F)F)c(Cl)c2)NC(=O)CN(C)C(=O)[C@H](CC2CCCCC2)N(C)C(=O)CN(C)C(=O)CN(C)C1=O` ([NMeAla(cPent)]I[Sar][Sar][NMeCha][Sar][hPhe(3-Cl-4-CF3)]P[Ac5c][NMeV][NMeD]-Piperidide; lactam N-11), the pIC50 is 7.89 in data set [1] and 6.14 in the data set on ASPC1. For the same compound, the Papp at 3 h in data set [2] amounted to 0.41 ×10⁻⁶ cm/s.
`CC[C@H](C)[C@@H]1NC(=O)[C@H](CC2CC2)N(C)C(=O)C[C@@H](C(=O)N2CCCCC2)N(C)C(=O)[C@H](C(C)C)N(C)C(=O)C2(CCCC2)NC(=O)[C@@H]2CCCN2C(=O)[C@H](CCc2ccc(C(F)(F)F)c(Cl)c2)NC(=O)CN(C)C(=O)[C@H](CC2CCCCC2)N(C)C(=O)CN(C)C(=O)CN(C)C1=O` ([NMeAla(cPr)]I[Sar][Sar][NMeCha][Sar][hPhe(3-Cl-4-CF3)]P[Ac5c][NMeV][NMeD]-Piperidide; lactam N-11): the values for the pIC50 (in data set [1]; with ASPC1) were 8.00 and 6.19, respectively. In addition, in data set [2], the Papp at 3 h came to 0.34 ×10⁻⁶ cm/s.
For `CC[C@H](C)[C@@H]1NC(=O)[C@H](CC2CCC2)N(C)C(=O)C[C@@H](C(=O)N2CCCCC2)N(C)C(=O)[C@H](C(C)C)N(C)C(=O)C2(CCCC2)NC(=O)[C@@H]2CCCN2C(=O)[C@H](CCc2ccc(C(F)(F)F)c(Cl)c2)NC(=O)CN(C)C(=O)[C@H](CC2CCCCC2)N(C)C(=O)CN(C)C(=O)CN(C)C1=O` ([NMeCba]I[Sar][Sar][NMeCha][Sar][hPhe(3-Cl-4-CF3)]P[Ac5c][NMeV][NMeD]-Piperidide; lactam N-11) the same measures were 8.00, 6.10 and 0.41 ×10⁻⁶ cm/s.
`CC[C@H](C)[C@@H]1NC(=O)[C@H](CC(C)C)N(C)C(=O)C[C@@H](C(=O)N2CCCCC2)N(C)C(=O)[C@H](CC2CCCCC2)N(C)C(=O)C2(CCCC2)NC(=O)[C@@H]2CCCN2C(=O)[C@H](CCc2ccc(C(F)(F)F)c(Cl)c2)NC(=O)CN(C)C(=O)[C@H](CC2CCCCC2)N(C)C(=O)[C@@H]2CCN2C(=O)[C@H](C)N(C)C1=O` ([NMeL]I[NMeA][Aze][NMeCha][Sar][hPhe(3-Cl-4-CF3)]P[Ac5c][NMeCha][NMeD]-Piperidide; lactam N-11): the pIC50 is 7.35 in data set [1] and 4.52 in the data set on ASPC1.
For `CC[C@H](C)[C@@H]1NC(=O)[C@H](CC(C)C)N(C)C(=O)C[C@@H](C(=O)N2CCCCC2)N(C)C(=O)[C@H](CC(C)C)N(C)C(=O)C2(CCCC2)NC(=O)[C@@H]2CCCN2C(=O)[C@H](CCc2ccc(C(F)(F)F)c(Cl)c2)NC(=O)CN(C)C(=O)[C@H](CC2CCCCC2)N(C)C(=O)[C@@H]2CCN2C(=O)[C@H](C)N(C)C1=O` ([NMeL]I[NMeA][Aze][NMeCha][Sar][hPhe(3-Cl-4-CF3)]P[Ac5c][NMeL][NMeD]-Piperidide; lactam N-11) the same measures were 8.41 and 6.62.
The like results for `CCC[C@H]1C(=O)N(C)[C@H](C(=O)N2CCCCC2)CC(=O)N(C)[C@@H](CC(C)C)C(=O)N[C@@H]([C@@H](C)CC)C(=O)N(C)[C@@H](C)C(=O)N2CC[C@H]2C(=O)N(C)[C@@H](CC2CCCCC2)C(=O)N(C)CC(=O)N[C@@H](CCc2ccc(C(F)(F)F)c(Cl)c2)C(=O)N2CCC[C@H]2C(=O)NC2(CCCC2)C(=O)N1C` ([NMeL]I[NMeA][Aze][NMeCha][Sar][hPhe(3-Cl-4-CF3)]P[Ac5c][NMeNva][NMeD]-Piperidide; lactam N-11) were, in that order, 8.24 and 6.51.
For the compound `CC[C@H](C)[C@@H]1NC(=O)[C@H](C)N(C)C(=O)C[C@@H](C(=O)n2cccc2)NC(=O)[C@H](C)N(C)C(=O)[C@H](Cc2ccccc2)N(C)C(=O)[C@H](Cc2ccccc2)NC(=O)[C@H](Cc2cccc(Cl)c2)NC(=O)CN(C)C(=O)[C@H](Cc2ccc(Cl)cc2)N(C)C(=O)CN(C)C(=O)CN(C)C1=O` (cyclo(F[NMeF][NMeA][X1][NMeA]I[Sar][Sar][NMePhe(4-Cl)][Sar][Phe(3-Cl)])), the pIC50 in data set [1] was < 5.30. Moreover, in data set [2], the Papp at 3 h amounted to 0.1 ×10⁻⁶ cm/s.
`CC[C@H](C)[C@@H]1NC(=O)[C@H](C)N(C)C(=O)C[C@@H](C(=O)n2cccc2)NC(=O)[C@H](CC2CCCCC2)N(C)C(=O)[C@H](Cc2ccccc2)N(C)C(=O)[C@H](Cc2ccccc2)NC(=O)[C@H](Cc2cccc(Cl)c2)NC(=O)CN(C)C(=O)[C@H](Cc2ccc(Cl)cc2)N(C)C(=O)CN(C)C(=O)CN(C)C1=O` (cyclo(F[NMeF][NMeCha][X1][NMeA]I[Sar][Sar][NMePhe(4-Cl)][Sar][Phe(3-Cl)])): in data set [1], the pIC50 is 6.17. Further, the Papp at 3 h in data set [2] was 0.07 ×10⁻⁶ cm/s.
For the compound `CC[C@H](C)[C@@H]1NC(=O)[C@H](C)N(C)C(=O)C[C@@H](C(=O)n2cccc2)N(C)C(=O)[C@H]([C@@H](C)CC)N(C)C(=O)[C@H](Cc2ccccc2)N(C)C(=O)[C@H](Cc2ccccc2)NC(=O)[C@H](Cc2cccc(Cl)c2)NC(=O)CN(C)C(=O)[C@H](Cc2ccc(Cl)cc2)N(C)C(=O)CN(C)C(=O)CN(C)C1=O` (cyclo(F[NMeF][NMeI][X2][NMeA]I[Sar][Sar][NMePhe(4-Cl)][Sar][Phe(3-Cl)])), in data set [1], the pIC50 is 7.06. In data set [2], the Papp at 3 h came out at 0.09 ×10⁻⁶ cm/s.
As to `CCCC[C@H]1C(=O)N(C)[C@H](C(=O)n2cccc2)CC(=O)N(C)[C@@H](C)C(=O)N[C@@H]([C@@H](C)CC)C(=O)N(C)CC(=O)N(C)CC(=O)N(C)[C@@H](Cc2ccc(Cl)cc2)C(=O)N(C)CC(=O)N[C@@H](Cc2cccc(Cl)c2)C(=O)N[C@@H](Cc2ccccc2)C(=O)N(C)[C@@H](Cc2ccccc2)C(=O)N1C` (cyclo(F[NMeF][NMeNle][X2][NMeA]I[Sar][Sar][NMePhe(4-Cl)][Sar][Phe(3-Cl)])), in data set [1], the pIC50 was 6.57. Also, in data set [2], the Papp at 3 h is 0.09 ×10⁻⁶ cm/s.
The like results for `CCC[C@H]1C(=O)N(C)[C@H](C(=O)n2cccc2)CC(=O)N(C)[C@@H](C)C(=O)N[C@@H]([C@@H](C)CC)C(=O)N(C)CC(=O)N(C)CC(=O)N(C)[C@@H](Cc2ccc(Cl)cc2)C(=O)N(C)CC(=O)N[C@@H](Cc2cccc(Cl)c2)C(=O)N[C@@H](Cc2ccccc2)C(=O)N(C)[C@@H](Cc2ccccc2)C(=O)N1C` (cyclo(F[NMeF][NMeNva][X2][NMeA]I[Sar][Sar][NMePhe(4-Cl)][Sar][Phe(3-Cl)])) were, in that order, 7.01 and 0.14 ×10⁻⁶ cm/s.
The like results for `CC[C@H](C)[C@@H]1NC(=O)[C@H](C)N(C)C(=O)C[C@@H](C(=O)n2cccc2)N(C)C(=O)[C@H](C(C)C)N(C)C(=O)[C@H](Cc2ccccc2)N(C)C(=O)[C@H](Cc2ccccc2)NC(=O)[C@H](Cc2cccc(Cl)c2)NC(=O)CN(C)C(=O)[C@H](Cc2ccc(Cl)cc2)N(C)C(=O)CN(C)C(=O)CN(C)C1=O` (cyclo(F[NMeF][NMeV][X2][NMeA]I[Sar][Sar][NMePhe(4-Cl)][Sar][Phe(3-Cl)])) were, in that order, 7.15 and 0.11 ×10⁻⁶ cm/s.

Values taken from ChEMBL document CHEMBL5550184, “Structure-activity relationships of middle-size cyclic peptides, KRAS inhibitors derived from an mRNA display” (Bioorg Med Chem, 2024).
